Assay results taken from ChEMBL document CHEMBL2176887, “Chemokine receptor antagonists” (J Med Chem, 2012).

Columns and labels:
physchem = settings: octanol/water
Description: Lipophilicity, log P of the compound

Cavia porcellus = species: Cavia porcellus; assay: Inhibition of CCL3-induced immune cell recruitment in guinea pig sensitization model; format: functional, organism-based
[1] = target: T1, C-C chemokine receptor type 1 (Homo sapiens, UniProt P32246)
T1 sequence (P32246 whole entry): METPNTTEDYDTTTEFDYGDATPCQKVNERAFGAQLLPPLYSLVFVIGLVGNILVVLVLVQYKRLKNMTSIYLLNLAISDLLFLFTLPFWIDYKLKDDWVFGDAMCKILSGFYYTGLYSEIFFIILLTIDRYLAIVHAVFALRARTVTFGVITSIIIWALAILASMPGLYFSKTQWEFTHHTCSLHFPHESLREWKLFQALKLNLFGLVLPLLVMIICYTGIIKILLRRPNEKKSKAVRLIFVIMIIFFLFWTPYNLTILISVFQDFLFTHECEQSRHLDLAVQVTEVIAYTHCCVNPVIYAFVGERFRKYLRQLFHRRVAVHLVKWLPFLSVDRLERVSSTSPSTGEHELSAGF

[2] = Oral bioavailability in rat; format: ADME, organism-based; settings: in vivo
[3] = Half life in rat; format: ADME, organism-based; settings: in vivo
[4] = target: T2, Muscarinic acetylcholine receptor M2 (Homo sapiens, UniProt P08172)
T2 sequence (P08172 whole entry): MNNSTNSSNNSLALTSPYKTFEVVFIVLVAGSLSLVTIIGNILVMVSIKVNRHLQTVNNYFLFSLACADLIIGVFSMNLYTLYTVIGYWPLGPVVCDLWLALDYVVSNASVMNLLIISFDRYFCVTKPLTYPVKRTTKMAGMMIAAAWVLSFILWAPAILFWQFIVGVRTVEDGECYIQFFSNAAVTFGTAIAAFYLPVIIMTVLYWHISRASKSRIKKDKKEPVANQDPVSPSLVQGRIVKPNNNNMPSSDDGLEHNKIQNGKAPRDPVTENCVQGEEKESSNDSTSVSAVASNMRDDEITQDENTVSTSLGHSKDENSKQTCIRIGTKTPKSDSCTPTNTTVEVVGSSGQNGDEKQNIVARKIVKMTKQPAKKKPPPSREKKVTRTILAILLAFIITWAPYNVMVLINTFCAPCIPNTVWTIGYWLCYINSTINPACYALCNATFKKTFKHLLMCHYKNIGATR
Description: Binding affinity to muscarinic M2 receptor

[5] = Oral bioavailability in dog; format: ADME, organism-based, Canis lupus familiaris; settings: in vivo
[6] = target: C-C chemokine receptor type 5 (Homo sapiens, UniProt P51681)
Chain of C-C chemokine receptor type 5 (P51681 whole entry): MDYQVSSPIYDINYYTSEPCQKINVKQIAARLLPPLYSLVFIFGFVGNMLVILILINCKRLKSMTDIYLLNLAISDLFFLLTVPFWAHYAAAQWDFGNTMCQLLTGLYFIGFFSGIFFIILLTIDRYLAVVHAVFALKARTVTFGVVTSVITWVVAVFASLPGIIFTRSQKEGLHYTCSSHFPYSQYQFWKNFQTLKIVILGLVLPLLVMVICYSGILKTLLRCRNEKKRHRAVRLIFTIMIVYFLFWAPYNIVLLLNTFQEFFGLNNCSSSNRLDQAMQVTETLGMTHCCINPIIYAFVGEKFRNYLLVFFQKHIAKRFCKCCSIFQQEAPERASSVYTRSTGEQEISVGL

[7] = Binding affinity to rat CCR1 by radioligand binding assay
[8] = Half life in human; format: ADME, organism-based; settings: in vivo

Compound | logP (physchem) | EC50 (Cavia porcellus) [mg/kg] | Ki [1] [nM] | bioavailability [2] [%] | half-life [3] [min] | Ki [4] [nM] | bioavailability [5] [%] | Ki [6] [nM] | Kd [7] [nM] | half-life [8] [min]
CC1(C)CN(CC/C=C2/c3cc(C(=O)O)ccc3OCc3ncccc32)C[C@H](c2ccc(Cl)cc2)[C@H]1O | 5.1 | 0.03 | 2.3 | 35 | 180 | 1.3 | 100 | 1 | – | –
C[C@@H]1CN(Cc2ccc(F)cc2)CCN1C(=O)COc1ccc(Cl)cc1NC(N)=O [BX 471 FREE BASE] | – | – | – | – | – | – | – | – | 121 | 138
